In test [1] the target is 5α-reductase (Mus musculus, UniProt Q68FF9). The experiment in a line: 5α-Reductase Inhibition Test (decrease in absorbance at 340 nm, NADPH/testosterone). The format is biochemical. The note with it: for A: absorbance decrease at 340 nm. How it is done:
• (1) Test drug: Sample of Example 52 • (2) Positive control drug: Finasteride, a product of Merck Sharp & Dohme Limited; Appearance: Film-coated tablets, white after removal of the coating; Specification: 5 mg/tablet; Batch number: 0022050. Storage conditions: light-shielded, airtight, and stored at room temperature. • (3) Drug preparation: The sample of Example 52 was tested at 10 concentrations: 35 mg/mL (solute: the sample of Example 52, solvent: 20% aqueous ethanol solution) was adopted as the initial concentration, and nine 2.5-fold gradient dilutions were made by using 20% aqueous ethanol solution; and five 2-fold gradient dilutions of the positive control finasteride were made by using anhydrous ethanol. • (4) Reagents: Reduced coenzyme II (NADPH), a product of Sigma, Catalog number N7505, Batch number 041939; testosterone (T), a product of Merck, Catalog number T-037; Batch number FE03112002; Tris buffer: Shanghai Yuanye Biotechnology Co., Ltd., Batch number J17HR10516A. • (5) Test instrument: ZDN microplate reader, a product of BioTek.
Mouse liver was obtained by dissection, and was added into a Tris buffer at a ratio of 1:5 for homogenization at 0°C. The homogenized liver was centrifuged at 10000g for 15 minutes, the supernatant was centrifuged at 55000g for another hour, and then the supernatant was placed at 4°C for later use. Reagents and samples were added according to the reaction system. Sample of Example 52 and finasteride sample at each dilution were added 4 times. After incubation at 37°C for 60 minutes, the decrease in absorbance ΔA at 340nm was measured. Inhibition rate (%) = (blank ΔA−sample ΔA)/(blank ΔA) × 100 [formula]
The 5α-reductase reaction system is shown in Table 16: Table 16 Reagent amount for the reaction system (µL)

Test [2] relates to Malassezia. The experiment in a line: Malassezia antibacterial test (microbroth method, OD600 after 72 hours). The class given is cell-based. The note with it: Ketoconazole 4µg/mL, read-out: Malassezia inhibition rate, positive control. How it is done: A culture medium and Malassezia were mixed thoroughly by shaking until no sediment was present at the bottom. A sterile syringe was used to pipette 200-800 µL of the bacterial suspension into fresh culture medium and incubate at 30°C in a biochemical incubator. After 2-3 days of incubation, the sample was subcultured.
A sterile malt extract culture medium was transferred into a sterile 50mL centrifuge tube. The sterile malt extract culture medium was centrifuged at 25°C and 3500 rpm for 10 minutes. The supernatant was transferred to another sterile 50mL centrifuge tube for later use.
Each sample was diluted with fresh culture medium to a concentration of 50 mg/mL, 40 mg/mL, 30 mg/mL, 20 mg/mL, 10 mg/mL, or 5 mg/mL.
The culture medium and Malassezia were mixed thoroughly by shaking and transferred to a sterile 50mL centrifuge tube. The mixture was centrifuged at 25°C and 1000 rpm for 30 seconds. The supernatant was transferred to a sterile 50 mL centrifuge tube and centrifuge at 25°C and 3500 rpm for 10 minutes.
A microplate reader was set at a wavelength of 600 nm. […] The OD600 value of the bacterial suspension was detected at 600 nm. […]
The required volume of bacterial suspension was calculated. […]
The sterile 96-well culture plate was placed in a 30°C incubator. After 72 hours of incubation, the absorbance at 600nm was recorded. […]

Sequence of 5α-reductase (Q68FF9 whole entry): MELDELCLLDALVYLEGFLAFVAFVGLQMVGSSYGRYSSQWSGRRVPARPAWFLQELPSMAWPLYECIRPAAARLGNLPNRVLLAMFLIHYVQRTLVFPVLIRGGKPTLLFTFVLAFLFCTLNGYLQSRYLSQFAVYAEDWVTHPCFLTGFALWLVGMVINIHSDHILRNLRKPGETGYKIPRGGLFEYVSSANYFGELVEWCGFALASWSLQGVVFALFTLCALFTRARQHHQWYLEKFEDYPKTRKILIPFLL

For the compound `CC(C)(C)NC(=O)[C@H]1CC[C@H]2[C@@H]3CC[C@H]4NC(=O)C=C[C@]4(C)[C@H]3CC[C@]12C` [Finasteride], in test [1] (Finasteride 0.003 µg/mL, read-out: Inhibition rate), the inhibition at 0.003 µg/mL was 6.12%. In test [1] (Finasteride 0.006 µg/mL, read-out: Inhibition rate), the inhibition at 0.006 µg/mL was 15.4%. Besides, the inhibition at 0.012 µg/mL in test [1] (Finasteride 0.012 µg/mL, read-out: Inhibition rate) amounted to 26.3%. The inhibition at 0.025 µg/mL in test [1] (Finasteride 0.025 µg/mL, read-out: Inhibition rate) is 39.2%. Besides, the inhibition at 0.05 µg/mL in test [1] (Finasteride 0.050 µg/mL, read-out: Inhibition rate) was found to be 63.1%. The A in test [1] (Finasteride 0.003 µg/mL) is reported as 0.10; in test [1] (Finasteride 0.012 µg/mL), 0.08; in test [1] (Finasteride 0.025 µg/mL), 0.07; in test [1] (Finasteride 0.050 µg/mL) it was 0.04.
With `CC(=O)N1CCN(c2ccc(OCC3COC(Cn4ccnc4)(c4ccc(Cl)cc4Cl)O3)cc2)CC1` (stereo not shown) [Ketoconazole], the inhibition at 4 µg/mL in test [2] came out at 95 ± 3.59%.

The values above are taken from patent EP4691473A1, “PLATYCLADUS ORIENTALIS EXTRACT, PREPARATION METHOD THEREFOR AND USE THEREOF” (Beijing Academy of TCM Beauty Supplements Co., Ltd., priority 2023, dated 2024).
